The text below walks through data of ChEMBL document CHEMBL4665778, “Discovery of Potent and Selective PI3Kγ Inhibitors” (J Med Chem, 2020).

One series concerns the target PI3K p110 beta/p85 alpha (Homo sapiens, UniProt P42338).
Series [1] deals with T1, Phosphatidylinositol 4,5-bisphosphate 3-kinase catalytic subunit gamma isoform (Homo sapiens, UniProt P48736).
Description: Inhibition of PI3Kgamma in human THP-1 cells assessed as reduction in Akt phosphorylation at S473 residue incubated for 60 mins by alphalisa assay
Series [2] is described as follows: Intrinsic clearance rat hepatocytes assessed per 10^6 cells by LC-MS/MS analysis. The format is ADME, tissue-based, Hepatocyte. The conditions noted are these: read-out: CLH.
Series [3] addresses PI3-kinase p110-delta/p85-alpha (Homo sapiens, UniProt O00329).
Description: Inhibition of recombinant N-terminal GST-tagged full-length human PI3K p110delta/p85alpha co- expressed in Sf9 insect cells using phosphatidylinositol 4,5-bisphosphate as substrate preincubated for 60 mins followed by substrate addition and measured after 1 hr in presence of ATP by ADP-Glo lipid kinase assay
Series [4] in a line: Clearance in Sprague-Dawley rat at 0.25 mg/kg, iv by LC-MS/MS analysis. The format is ADME, organism-based. The following applies: in vivo.
Series [5] in a line: Volume of distribution at steady state in Sprague-Dawley rat at 0.25 mg/kg, iv by LC-MS/MS analysis. The format is ADME, organism-based. The following applies: in vivo, read-out: Vdss.
For series [6], the target named is T1, Phosphatidylinositol 4,5-bisphosphate 3-kinase catalytic subunit gamma isoform. The source holds these as a separate data set.
Description: Inhibition of recombinant N-terminal His-tagged full-length human PI3K p120gamma expressed in Sf9 insect cells using phosphatidylinositol 4,5-bisphosphate as substrate preincubated for 60 mins followed by substrate addition and measured after 1 hr in presence of ATP by ADP-Glo lipid kinase assay
A short description of series [7]: Intrinsic clearance in human hepatocytes assessed per 10^6 cells at 0.5 uM by LC-MS/MS analysis. In kind it is ADME, cell-based, Hepatocyte. The following applies: read-out: CLH.
For series [8], the target named is PI3-kinase p110-alpha/p85-alpha (Homo sapiens, UniProt P42336).
Description: Inhibition of recombinant N-terminal FLAG-tagged full-length human PI3K p110alpha/human p85alpha co- expressed in Sf9 insect cells using phosphatidylinositol 4,5-bisphosphate as substrate preincubated for 60 mins followed by substrate addition and measured after 1 hr in presence of ATP by ADP-Glo lipid kinase assay
In another series the target is CYP3A4 (Homo sapiens, UniProt P08684). The series is described as follows: in vitro. The following applies: liver microsomes, probe midazolam. A general note: Microsomes from liver hold many membrane-bound enzymes, among them those of drug oxidation.
The species entered for another series is Homo sapiens. The series can be described thus: Selectivity index, ratio of IC50 for N-terminal FLAG-tagged full-length human PI3K p110beta/human p85alpha to IC50 for recombinant N-terminal His-tagged full-length human PI3K p120gamma.

T1 sequence (P48736 whole entry, canonical isoform): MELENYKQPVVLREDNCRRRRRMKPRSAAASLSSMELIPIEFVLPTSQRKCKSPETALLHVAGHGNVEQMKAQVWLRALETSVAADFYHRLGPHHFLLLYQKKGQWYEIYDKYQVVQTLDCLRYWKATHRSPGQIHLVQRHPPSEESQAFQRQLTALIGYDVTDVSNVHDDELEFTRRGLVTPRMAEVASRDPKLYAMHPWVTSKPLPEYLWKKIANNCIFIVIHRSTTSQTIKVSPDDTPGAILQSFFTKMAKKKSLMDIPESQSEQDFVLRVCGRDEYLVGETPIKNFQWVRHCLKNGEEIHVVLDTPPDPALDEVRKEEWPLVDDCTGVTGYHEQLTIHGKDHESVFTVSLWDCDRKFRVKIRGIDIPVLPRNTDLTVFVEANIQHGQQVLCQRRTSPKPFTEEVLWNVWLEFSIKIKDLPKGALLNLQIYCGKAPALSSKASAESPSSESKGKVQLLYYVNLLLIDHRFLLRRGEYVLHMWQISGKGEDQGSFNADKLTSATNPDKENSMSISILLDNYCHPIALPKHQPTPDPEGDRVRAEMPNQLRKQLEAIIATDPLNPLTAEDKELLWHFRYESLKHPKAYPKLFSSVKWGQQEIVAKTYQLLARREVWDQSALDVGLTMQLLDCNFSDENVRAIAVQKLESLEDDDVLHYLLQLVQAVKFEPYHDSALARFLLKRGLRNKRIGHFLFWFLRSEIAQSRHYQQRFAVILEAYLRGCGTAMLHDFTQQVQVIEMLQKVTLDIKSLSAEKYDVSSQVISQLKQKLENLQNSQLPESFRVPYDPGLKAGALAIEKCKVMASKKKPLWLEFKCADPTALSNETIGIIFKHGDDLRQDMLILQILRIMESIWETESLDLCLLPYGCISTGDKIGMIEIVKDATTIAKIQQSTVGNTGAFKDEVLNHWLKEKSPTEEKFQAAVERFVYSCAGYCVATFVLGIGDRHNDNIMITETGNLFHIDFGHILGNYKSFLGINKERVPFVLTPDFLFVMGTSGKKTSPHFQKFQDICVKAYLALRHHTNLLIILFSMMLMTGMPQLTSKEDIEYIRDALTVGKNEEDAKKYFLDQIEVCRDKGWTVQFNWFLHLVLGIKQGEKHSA
Chain of PI3-kinase p110-alpha/p85-alpha (P27986 whole entry): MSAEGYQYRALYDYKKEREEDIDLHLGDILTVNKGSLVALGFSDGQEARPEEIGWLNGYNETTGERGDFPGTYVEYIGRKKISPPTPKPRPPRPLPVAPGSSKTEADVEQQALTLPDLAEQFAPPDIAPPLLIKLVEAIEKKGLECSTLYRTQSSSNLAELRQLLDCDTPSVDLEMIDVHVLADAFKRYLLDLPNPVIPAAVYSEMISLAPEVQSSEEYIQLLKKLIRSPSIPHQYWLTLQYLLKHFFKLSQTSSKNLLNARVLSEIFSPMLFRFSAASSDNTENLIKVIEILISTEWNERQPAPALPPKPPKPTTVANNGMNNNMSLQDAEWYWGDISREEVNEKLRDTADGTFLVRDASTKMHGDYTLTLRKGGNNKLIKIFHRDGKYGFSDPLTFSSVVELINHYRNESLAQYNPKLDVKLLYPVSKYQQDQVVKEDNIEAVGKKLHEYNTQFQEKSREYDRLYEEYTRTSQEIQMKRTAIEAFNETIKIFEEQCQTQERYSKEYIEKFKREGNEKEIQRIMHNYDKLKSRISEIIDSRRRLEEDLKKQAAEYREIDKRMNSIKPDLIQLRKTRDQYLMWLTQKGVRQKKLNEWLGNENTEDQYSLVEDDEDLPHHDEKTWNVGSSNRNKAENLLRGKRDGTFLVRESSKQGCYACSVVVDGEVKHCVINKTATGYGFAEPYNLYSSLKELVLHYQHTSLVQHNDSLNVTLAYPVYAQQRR
Chain of PI3-kinase p110-alpha/p85-alpha (P42336 whole entry): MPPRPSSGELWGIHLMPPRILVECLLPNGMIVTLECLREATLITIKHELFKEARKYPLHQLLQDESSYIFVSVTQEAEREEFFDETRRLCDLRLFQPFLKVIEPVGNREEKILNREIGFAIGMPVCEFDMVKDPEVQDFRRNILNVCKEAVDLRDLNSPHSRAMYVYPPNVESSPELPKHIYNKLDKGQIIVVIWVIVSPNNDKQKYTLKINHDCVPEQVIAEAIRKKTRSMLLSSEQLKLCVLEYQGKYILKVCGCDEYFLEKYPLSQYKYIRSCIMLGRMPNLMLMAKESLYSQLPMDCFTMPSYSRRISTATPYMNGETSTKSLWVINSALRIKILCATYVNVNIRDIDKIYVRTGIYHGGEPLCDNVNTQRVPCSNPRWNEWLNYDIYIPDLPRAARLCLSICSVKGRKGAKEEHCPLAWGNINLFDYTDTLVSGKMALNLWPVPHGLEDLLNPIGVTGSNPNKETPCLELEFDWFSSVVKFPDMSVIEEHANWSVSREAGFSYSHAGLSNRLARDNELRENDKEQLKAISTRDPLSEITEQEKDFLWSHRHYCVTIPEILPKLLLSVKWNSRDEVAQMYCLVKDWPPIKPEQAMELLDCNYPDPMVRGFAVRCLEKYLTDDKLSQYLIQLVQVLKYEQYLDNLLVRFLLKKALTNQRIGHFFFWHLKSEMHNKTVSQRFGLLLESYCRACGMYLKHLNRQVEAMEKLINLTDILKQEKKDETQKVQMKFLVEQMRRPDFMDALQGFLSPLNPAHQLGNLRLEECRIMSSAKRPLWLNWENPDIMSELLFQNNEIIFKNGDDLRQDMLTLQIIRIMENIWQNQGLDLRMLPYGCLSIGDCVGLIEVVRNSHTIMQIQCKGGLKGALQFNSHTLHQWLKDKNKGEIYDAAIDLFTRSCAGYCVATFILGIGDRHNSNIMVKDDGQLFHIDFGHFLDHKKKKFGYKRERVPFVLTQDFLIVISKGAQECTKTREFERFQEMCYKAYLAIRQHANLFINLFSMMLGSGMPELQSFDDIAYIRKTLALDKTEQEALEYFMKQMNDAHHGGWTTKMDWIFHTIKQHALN
Chain of PI3K p110 beta/p85 alpha (P27986 whole entry, canonical isoform): as the sequence (P27986 whole entry) above
Chain of PI3K p110 beta/p85 alpha (P42338 whole entry, canonical isoform): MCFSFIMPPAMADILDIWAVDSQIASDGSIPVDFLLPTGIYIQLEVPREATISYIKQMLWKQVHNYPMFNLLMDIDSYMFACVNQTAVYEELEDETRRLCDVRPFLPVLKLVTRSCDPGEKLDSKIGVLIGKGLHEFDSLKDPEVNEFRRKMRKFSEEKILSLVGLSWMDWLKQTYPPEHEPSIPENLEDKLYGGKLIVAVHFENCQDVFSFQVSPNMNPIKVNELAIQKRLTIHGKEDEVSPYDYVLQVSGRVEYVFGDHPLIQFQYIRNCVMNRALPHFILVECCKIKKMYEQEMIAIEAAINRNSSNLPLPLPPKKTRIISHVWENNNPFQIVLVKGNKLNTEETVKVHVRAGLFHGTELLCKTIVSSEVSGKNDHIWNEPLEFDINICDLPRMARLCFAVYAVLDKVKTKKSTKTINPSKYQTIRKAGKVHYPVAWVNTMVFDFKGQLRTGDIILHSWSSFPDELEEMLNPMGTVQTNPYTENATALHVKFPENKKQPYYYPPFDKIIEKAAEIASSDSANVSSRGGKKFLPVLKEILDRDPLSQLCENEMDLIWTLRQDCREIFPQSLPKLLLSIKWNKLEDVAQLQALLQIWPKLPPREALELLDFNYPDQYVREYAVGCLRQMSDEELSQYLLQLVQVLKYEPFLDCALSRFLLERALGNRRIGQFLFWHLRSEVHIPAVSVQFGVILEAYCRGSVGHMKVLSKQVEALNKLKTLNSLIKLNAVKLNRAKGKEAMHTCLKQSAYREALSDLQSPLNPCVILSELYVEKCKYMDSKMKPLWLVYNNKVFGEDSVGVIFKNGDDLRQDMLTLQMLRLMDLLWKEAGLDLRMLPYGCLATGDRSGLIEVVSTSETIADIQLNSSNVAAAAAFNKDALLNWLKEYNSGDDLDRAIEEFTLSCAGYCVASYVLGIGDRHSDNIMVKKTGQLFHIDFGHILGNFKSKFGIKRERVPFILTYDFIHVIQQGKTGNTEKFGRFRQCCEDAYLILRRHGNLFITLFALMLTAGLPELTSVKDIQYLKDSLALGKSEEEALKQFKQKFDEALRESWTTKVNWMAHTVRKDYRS
Chain of PI3-kinase p110-delta/p85-alpha (P27986 whole entry): as the sequence (P27986 whole entry) above
Chain of PI3-kinase p110-delta/p85-alpha (O00329 whole entry): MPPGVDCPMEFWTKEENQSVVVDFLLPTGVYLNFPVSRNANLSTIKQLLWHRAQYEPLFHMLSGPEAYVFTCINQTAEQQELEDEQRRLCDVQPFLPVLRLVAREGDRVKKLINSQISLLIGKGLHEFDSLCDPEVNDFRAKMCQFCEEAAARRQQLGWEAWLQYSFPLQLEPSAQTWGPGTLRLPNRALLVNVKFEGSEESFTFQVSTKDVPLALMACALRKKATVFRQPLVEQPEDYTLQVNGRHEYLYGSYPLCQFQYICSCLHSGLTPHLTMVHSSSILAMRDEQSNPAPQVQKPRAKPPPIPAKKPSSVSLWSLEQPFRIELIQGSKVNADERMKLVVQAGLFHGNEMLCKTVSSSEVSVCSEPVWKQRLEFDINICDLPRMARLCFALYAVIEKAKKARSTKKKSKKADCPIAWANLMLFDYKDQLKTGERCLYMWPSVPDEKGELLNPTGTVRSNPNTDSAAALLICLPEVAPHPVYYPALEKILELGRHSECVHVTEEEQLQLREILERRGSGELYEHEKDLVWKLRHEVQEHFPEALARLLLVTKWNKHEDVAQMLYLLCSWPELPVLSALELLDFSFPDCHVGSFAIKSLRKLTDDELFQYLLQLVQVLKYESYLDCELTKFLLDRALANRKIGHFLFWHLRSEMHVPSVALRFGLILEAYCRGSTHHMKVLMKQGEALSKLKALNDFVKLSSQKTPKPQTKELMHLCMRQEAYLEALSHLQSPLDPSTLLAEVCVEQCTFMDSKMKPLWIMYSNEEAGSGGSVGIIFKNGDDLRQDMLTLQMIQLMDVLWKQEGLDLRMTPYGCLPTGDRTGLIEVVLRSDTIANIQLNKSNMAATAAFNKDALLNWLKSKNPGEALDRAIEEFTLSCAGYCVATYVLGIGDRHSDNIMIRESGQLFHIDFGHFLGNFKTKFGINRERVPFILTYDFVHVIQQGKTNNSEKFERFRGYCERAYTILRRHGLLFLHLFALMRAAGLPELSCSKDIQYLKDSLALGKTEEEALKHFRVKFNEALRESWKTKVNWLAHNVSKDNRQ
Description for PI3K p110 beta/p85 alpha: Inhibition of recombinant N-terminal FLAG-tagged full-length human PI3K p110beta/human p85alpha co- expressed in Sf9 insect cells using phosphatidylinositol 4,5-bisphosphate as substrate preincubated for 60 mins followed by substrate addition and measured after 1 hr in presence of ATP by ADP-Glo lipid kinase assay

As a reminder, the IC50 is the concentration needed to halve the response being measured. As usually defined, the clearance is the volume of plasma or blood freed of the substance per unit of time. High values mean efficient removal, low ones inefficient removal. Take `C[C@@H](C1CC1)N1Cc2cc(-c3ccn4nc(N)c(-c5cnn(C)c5)c4n3)cc(C(F)(F)F)c2C1=O`: the IC50 at PI3K p110 beta/p85 alpha was greater than 15000 nM; in series [1] it was 64 nM; in series [3], 1310 nM; in [6], 1.9 nM; in series [8], 1940 nM. The hepatocyte CLint in series [2] worked out at 7.4 µL/min/1e6 cells. The clearance in series [4] is 13 mL/min/kg. For the same molecule, the Vd in series [5] was 1.2 L/kg. Moreover, the hepatocyte CLint at 0.5 µM in series [7] is 3.3 µL/min/1e6 cells.
A word on the inhibition: it is the share of the control response that was lost under treatment. As for `CC(C)c1cc(-c2cnn3ccc(-c4cc5c(c(C(F)(F)F)c4)C(=O)N([C@@H](C)C4CC4)C5)nc23)ccc1C(=O)O`, the IC50 against PI3K p110 beta/p85 alpha worked out at 11600 nM; in [1], 74 nM; in series [3] it was 459 nM; in series [6], 2.1 nM; in [8], 194 nM. Also, at CYP3A4, the inhibition at 10 µM worked out at 13%. The hepatocyte CLint in series [2] was 1.7 µL/min/1e6 cells. In series [4], this molecule gave a clearance of 86.7 mL/min/kg. Moreover, the Vd in [5] turned out to be 25 L/kg. In the series filed under Homo sapiens, the Ratio IC50 worked out at 5520. The hepatocyte CLint at 0.5 µM in series [7] is less than 1.2 µL/min/1e6 cells.
